For 20 molecules, IC50 results are on record in patent US9023851B2 (Merck Patent GmbH, priority 2010, dated 2015).

A word on the IC50: it is the concentration that gives 50% inhibition.

One experiment addresses T1, Syk (Homo sapiens, UniProt P43405).
T1 construct: purchased BPS Bioscience, CA, USA
Briefly: Syk enzyme assay (flash plate / Caliper mobility shift). Type of experiment: biochemical. A digest of the protocol: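 Flashplate format used 2.5 nM SYK, 400 nM biotinylated peptide and 10 µM ATP with 33P tracer, pH 7.5, 1 h at 30 °C, read by radioactivity. Caliper format ran 90 min at 25 °C in HEPES pH 7.5, reading percent peptide conversion by mobility shift. IC50s came from dose-response curves.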

A further experiment addresses T2, Src (Homo sapiens, UniProt P12931).
T2 construct: purchased Carna Bioscience, Kobe, Japan
The experiment is described as follows: cSrc enzymatic assay (Caliper LifeSciences technology). The class given is biochemical. Summed up:
(§1)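 Off-chip mobility-shift assay quantifying conversion of a fluorescent peptide substrate to phosphorylated product. Reactions in 100 mM HEPES pH 7.5, 1 mM DTT, 1 mM MgCl2, 0.015% Brij-35, 90 min at 25 C, stopped with EDTA. IC50 from sigmoidal fit of percent conversion versus inhibitor concentration.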

For the next experiment, the target named is T3, KDR (Homo sapiens, UniProt P35968).
T3 construct: purchased BPS Bioscience, CA, USA
T3 sequence (P35968 20-1356): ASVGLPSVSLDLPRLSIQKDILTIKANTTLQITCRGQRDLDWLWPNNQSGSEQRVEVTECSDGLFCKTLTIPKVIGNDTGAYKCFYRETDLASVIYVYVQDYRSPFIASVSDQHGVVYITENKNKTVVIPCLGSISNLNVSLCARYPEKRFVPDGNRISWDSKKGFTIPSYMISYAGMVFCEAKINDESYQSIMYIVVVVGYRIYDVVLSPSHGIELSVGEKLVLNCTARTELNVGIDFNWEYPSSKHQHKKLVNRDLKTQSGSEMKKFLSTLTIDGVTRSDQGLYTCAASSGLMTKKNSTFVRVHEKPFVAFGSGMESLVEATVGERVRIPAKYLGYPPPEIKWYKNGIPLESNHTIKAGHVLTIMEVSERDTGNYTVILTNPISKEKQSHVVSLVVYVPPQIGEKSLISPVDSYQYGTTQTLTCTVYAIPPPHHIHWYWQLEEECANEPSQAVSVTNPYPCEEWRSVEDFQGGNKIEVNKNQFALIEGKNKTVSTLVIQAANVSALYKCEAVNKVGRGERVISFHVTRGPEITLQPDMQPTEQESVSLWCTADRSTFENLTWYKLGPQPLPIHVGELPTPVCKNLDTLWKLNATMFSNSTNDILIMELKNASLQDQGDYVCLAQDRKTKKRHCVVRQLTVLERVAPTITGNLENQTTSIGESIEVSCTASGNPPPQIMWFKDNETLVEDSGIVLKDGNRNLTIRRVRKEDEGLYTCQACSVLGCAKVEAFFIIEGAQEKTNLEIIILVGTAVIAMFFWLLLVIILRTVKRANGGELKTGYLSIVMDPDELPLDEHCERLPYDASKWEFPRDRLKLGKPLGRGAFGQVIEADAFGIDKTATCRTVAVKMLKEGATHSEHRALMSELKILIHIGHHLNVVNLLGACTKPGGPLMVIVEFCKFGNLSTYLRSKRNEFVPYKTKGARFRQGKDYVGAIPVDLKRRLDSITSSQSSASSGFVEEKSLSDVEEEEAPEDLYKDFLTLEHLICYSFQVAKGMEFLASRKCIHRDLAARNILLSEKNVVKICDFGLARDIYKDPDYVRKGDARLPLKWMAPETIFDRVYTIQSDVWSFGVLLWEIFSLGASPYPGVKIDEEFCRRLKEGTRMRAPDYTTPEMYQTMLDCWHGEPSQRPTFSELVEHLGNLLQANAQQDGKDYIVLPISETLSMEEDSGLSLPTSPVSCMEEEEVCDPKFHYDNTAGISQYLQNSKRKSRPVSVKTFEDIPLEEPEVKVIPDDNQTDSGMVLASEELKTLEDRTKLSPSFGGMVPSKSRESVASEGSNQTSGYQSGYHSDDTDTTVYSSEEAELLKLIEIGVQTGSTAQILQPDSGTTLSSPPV
The experiment is described as follows: KDR enzymatic assay (Caliper LifeSciences technology). The class given is biochemical. Summed up:
as §1

A further experiment deals with T4, ZAP-70 (Homo sapiens, UniProt P43403).
T4 construct: purchased BPS Bioscience, CA, USA
T4 sequence (P43403 1-619): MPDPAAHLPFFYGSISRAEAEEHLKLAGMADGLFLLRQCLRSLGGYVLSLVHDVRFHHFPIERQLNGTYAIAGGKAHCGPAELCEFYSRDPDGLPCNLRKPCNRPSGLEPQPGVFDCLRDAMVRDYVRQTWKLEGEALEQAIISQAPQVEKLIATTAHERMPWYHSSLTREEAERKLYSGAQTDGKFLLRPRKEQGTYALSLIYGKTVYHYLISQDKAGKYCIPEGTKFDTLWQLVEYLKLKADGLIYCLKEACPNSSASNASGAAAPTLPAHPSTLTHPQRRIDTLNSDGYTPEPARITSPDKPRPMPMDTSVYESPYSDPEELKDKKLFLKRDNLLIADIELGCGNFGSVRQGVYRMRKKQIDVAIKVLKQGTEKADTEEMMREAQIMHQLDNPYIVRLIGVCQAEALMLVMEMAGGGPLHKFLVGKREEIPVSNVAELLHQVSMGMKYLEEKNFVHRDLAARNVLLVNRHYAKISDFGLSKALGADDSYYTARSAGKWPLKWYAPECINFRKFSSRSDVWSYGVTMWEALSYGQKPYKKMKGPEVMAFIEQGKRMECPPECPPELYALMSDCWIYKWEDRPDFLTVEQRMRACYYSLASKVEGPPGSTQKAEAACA
Briefly: Zap70 enzymatic assay (Caliper LifeSciences technology). The class given is biochemical. Summed up:
as §1

Another experiment relates to Ramos cells. The experiment is described as follows: BCR crosslinking-induced BLNK phosphorylation (BLNK cell assay). The class given is cell-based. The following applies: Homo sapiens. Here is the method:
1. BCR Crosslinking-Induced BLNK Phosphorylation
Ramos cells incubated overnight in IMDM medium containing 5% FCS were resuspended in IMDM medium without serum (3.3×10^6 cells/ml). 90 μl of cell suspension (300′000 cells) were incubated with 10 μl of SYK inhibitors (in 3% DMSO) for 20 minutes at 37° C., in 96 well plates. After preincubation with inhibitors, cells were activated with 10 μg/ml of goat antihuman anti-IgM for 10 minutes at 37° C. After stimulation, cells were fixed by addition of 80 μl of 4% paraformaldehyde followed by a 10 minutes incubation at RT and […] in 0.1% Triton X-100 in PBS. BLNK phosphorylation was detected by flow cytometry after staining of the cells with anti-BLNK-pY84-PE antibodies from BD pharmingen, for 45 minutes at RT. […]

In the next experiment the target is GCN2 (Homo sapiens, UniProt Q9P2K8). The experiment is described as follows: GCN2 kinase TR-FRET (Lanthascreen) assay. The class given is biochemical. The text has this: GCN2: Assay Principle & Conditions
Sequence of GCN2 (Q9P2K8 whole entry, species assumed): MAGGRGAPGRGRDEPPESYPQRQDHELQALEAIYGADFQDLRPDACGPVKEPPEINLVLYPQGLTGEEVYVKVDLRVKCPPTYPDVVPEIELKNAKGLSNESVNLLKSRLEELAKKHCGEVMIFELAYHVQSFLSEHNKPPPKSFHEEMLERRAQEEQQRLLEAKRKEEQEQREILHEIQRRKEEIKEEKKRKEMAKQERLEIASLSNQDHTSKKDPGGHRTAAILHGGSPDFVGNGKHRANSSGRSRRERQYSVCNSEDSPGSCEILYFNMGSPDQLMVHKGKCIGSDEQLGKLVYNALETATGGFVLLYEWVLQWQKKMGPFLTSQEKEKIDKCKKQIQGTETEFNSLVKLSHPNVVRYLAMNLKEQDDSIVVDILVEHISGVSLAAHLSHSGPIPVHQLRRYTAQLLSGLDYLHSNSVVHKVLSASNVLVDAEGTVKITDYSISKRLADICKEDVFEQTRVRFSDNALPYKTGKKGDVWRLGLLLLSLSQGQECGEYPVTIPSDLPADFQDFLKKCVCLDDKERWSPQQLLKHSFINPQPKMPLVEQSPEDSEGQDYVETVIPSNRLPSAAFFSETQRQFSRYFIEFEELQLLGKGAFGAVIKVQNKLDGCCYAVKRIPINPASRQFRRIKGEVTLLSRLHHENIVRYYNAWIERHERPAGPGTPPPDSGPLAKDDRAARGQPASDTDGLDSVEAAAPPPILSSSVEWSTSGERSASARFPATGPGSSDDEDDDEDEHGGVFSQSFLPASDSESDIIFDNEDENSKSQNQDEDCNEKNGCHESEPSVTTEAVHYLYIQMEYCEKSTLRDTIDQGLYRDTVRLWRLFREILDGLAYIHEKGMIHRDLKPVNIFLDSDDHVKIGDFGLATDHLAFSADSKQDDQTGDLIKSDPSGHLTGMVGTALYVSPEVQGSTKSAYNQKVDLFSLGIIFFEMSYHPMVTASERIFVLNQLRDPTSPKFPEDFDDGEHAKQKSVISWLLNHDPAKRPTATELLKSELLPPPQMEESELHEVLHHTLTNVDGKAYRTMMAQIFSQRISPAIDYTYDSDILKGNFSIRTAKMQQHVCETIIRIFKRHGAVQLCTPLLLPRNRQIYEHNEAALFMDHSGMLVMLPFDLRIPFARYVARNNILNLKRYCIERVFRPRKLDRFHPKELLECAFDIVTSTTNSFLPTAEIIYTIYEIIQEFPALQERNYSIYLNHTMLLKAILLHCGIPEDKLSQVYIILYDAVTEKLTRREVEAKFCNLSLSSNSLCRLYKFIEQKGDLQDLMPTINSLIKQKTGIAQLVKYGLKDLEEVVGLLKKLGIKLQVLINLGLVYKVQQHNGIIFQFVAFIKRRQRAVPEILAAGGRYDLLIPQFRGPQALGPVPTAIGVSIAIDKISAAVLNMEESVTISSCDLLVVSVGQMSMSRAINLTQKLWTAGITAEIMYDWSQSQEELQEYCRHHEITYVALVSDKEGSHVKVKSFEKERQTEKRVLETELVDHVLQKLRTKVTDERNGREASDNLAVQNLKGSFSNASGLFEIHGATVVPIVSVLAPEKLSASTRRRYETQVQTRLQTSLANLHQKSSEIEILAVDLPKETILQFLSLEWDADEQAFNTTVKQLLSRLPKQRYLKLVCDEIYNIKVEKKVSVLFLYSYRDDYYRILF
This assay can quantificate the activity of the serin kinase GCN2 (general control non-derepressible-2).
This kinase is involved in the stress metabolism of cells. It is activated upon starvation (amino acid depletion). Its natural substrate is eIF2a (eukaryotic initiation factor 2 alpha subunit), a translation factor, which gets activated (phosphorylated) by GCN2 in case of an amino acid bottleneck in the cells. This in turn leads to a halt of the protein synthesis. Inhibition of GCN2 results in stopping this mechanism: The cell can not stop protein production upon “starvation” stress.
The assay is run in two steps: the enzymatic reaction and the detection step. In the first step GCN2 is incubated with 10 μM ATP and 80 nM of the GFP-labelled substrate eIF2alpha at room temperature.
The enzymatic reaction is stopped by addition of EDTA. The amount of phosphorylated eIF2alpha is determined by TR-FRET (Lanthascreen): A complex is formed consisting of antibody and GFP labelled phospho-eIF2a, which allows a FRET upon exitation at 340 nm.
The GCN2-activity is directly proportional to the ratio of fluorescence units at the emission wavelengthh 520 nm (phosphopeptide-sensitive wavelength=emission of GFP) to the units at 495 nm (reference wavelength=emission of Terbium-chelate).
Assay Procedure • 4 uL enzyme solution (in assay buffer) • 1.5 uL compound (in cmpd dilution buffer/6.3% DMSO) • Incubation 20 min at RT • 4 uL substrate/ATP mix (in assay buffer) • Incubation 90 min at RT • 10 uL stop/detection mix (in antibody dilution buffer) • Incubation 60 min at RT • Readout Lanthascreen 340/495/5204

Some results are limits rather than exact numbers.

T2 sequence (P12931 whole entry): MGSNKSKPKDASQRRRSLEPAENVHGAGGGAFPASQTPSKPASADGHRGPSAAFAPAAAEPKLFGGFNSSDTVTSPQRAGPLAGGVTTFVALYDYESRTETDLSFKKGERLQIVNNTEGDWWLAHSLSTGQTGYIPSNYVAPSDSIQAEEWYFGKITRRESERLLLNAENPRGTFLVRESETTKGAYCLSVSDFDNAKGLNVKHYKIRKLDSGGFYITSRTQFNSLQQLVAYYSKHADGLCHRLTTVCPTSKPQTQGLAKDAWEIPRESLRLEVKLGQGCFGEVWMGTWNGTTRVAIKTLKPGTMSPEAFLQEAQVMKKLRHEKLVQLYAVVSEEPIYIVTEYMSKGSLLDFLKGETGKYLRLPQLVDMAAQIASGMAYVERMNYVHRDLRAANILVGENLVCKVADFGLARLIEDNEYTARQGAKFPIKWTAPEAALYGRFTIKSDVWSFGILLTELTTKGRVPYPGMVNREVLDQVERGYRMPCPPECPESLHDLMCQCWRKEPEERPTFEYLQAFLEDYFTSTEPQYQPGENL

Take `COc1cc(Nc2nc3c(-c4cccc(O)c4)nccn3n2)cc(OC)c1` [Example C268, 3-[2-(3,5-Dimethoxy-phenylamino)-[1,2,4]triazolo[1,5-a]pyrazin-8-yl]-phenol]: the IC50 at Syk is below 0.3 µM; at Src it was 0.3 to 3 µM; against KDR, below 0.3 µM; against ZAP-70, 0.3 to 3 µM; in the experiment with Ramos cells it was 3 to 50 µM.
As for `Cc1cc(C)cc(Nc2nc3c(-c4cccnc4)nccn3n2)c1` [Example E6], the IC50 on GCN2 is below 10 µM.
Regarding `CN1CCN(c2ccc(Nc3nc4c(-c5cnc6ccccc6c5)nccn4n3)cc2)CC1` [Example D23, [4-(4-Methyl-piperazin-1-yl)-phenyl]-(8-quinolin-3-yl-[1,2,4]triazolo[1,5-a]pyrazin-2-yl)-amine], the IC50 on Syk is below 0.3 µM; on Src, below 0.3 µM; at KDR, 0.3 to 3 µM; against ZAP-70, 3 to 50 µM; in the experiment on Ramos cells, 3 to 50 µM.
`COc1cc(OC)cc(-c2nccn3nc(Nc4cc(C)cc(C)c4)nc23)c1` [Example E5] gave an IC50 against GCN2 below 10 µM.
The same measure, in the same setting: the figure for `COc1ccc(Nc2nc3c(-c4cccnc4)nccn3n2)cc1OC` [Example E10] is below 10 µM.
Turning to `NCc1cccc(-c2nccn3nc(Nc4ccc(N5CCOCC5)cc4)nc23)c1` [Example C253, [8-(3-Aminomethyl-phenyl)-[1,2,4]triazolo[1,5-a]pyrazin-2-yl]-(4-morpholin-4-yl-phenyl)-amine], the IC50 was below 0.3 µM at Syk, 0.3 to 3 µM on Src, below 0.3 µM at KDR and 3 to 50 µM with Ramos cells.
On to `COc1cc(Nc2nc3c(-c4cccc(NS(C)(=O)=O)c4)nccn3n2)cc(OC)c1` [Example C272, N-{3-[2-(3,5-Dimethoxy-phenylamino)-[1,2,4]triazolo[1,5-a]pyrazin-8-yl]-phenyl}-methanesulfonamide], for which the IC50 at Syk is below 0.3 µM; at Src, 0.3 to 3 µM; on KDR, below 0.3 µM; at ZAP-70 it was 0.3 to 3 µM; in the experiment with Ramos cells, 3 to 50 µM.
In turn, `c1ccc(Cn2ncc3ccc(Nc4nc5c(-c6ccccc6)nccn5n4)cc32)cc1` [Example E8] displayed an IC50 against GCN2 below 10 µM.
On to `Cn1ccnc1Sc1ccc(Nc2nc3c(-c4ccccc4)nccn3n2)cc1Cl` [Example E7], for which the IC50 against GCN2 is below 10 µM.
Consider `Cc1nc2cc(Nc3nc4c(-c5cnn(C)c5)nccn4n3)ccc2[nH]1` [Example D1, (2-Methyl-1H-benzoimidazol-5-yl)-[8-(1-methyl-1H-pyrazol-4-yl)-[1,2,4]triazolo[1,5-a]pyrazin-2-yl]-amine], for which the IC50 at Syk is below 0.3 µM; on Src, 0.3 to 3 µM; against KDR it was 0.3 to 3 µM; in the experiment on Ramos cells it was 3 to 50 µM.
Consider `Cc1cc(C)cc(Nc2nc3c(-c4ccc(N5CCOCC5)cc4)nccn3n2)c1` [Example E2], for which, at GCN2, the IC50 is below 10 µM.
Take `CN1CCN(c2ccc(Nc3nc4c(-c5ccc6c(cnn6C)c5)nccn4n3)cc2)CC1` [Example D15, [8-(1-Methyl-1H-indazol-5-yl)-[1,2,4]triazolo[1,5-a]pyrazin-2-yl]-[4-(4-methyl-piperazin-1-yl)-phenyl]-amine]: the IC50 on Syk was below 0.3 µM; on Src, 0.3 to 3 µM; against KDR, 0.3 to 3 µM; against ZAP-70, 3 to 50 µM; with Ramos cells, 3 to 50 µM.
For the molecule `c1cnc2cc(-c3nccn4nc(Nc5ccc(N6CCOCC6)cc5)nc34)ccc2c1` [Example C265, (4-Morpholin-4-yl-phenyl)-(8-quinolin-7-yl-[1,2,4]triazolo[1,5-a]pyrazin-2-yl)-amine], the half-inhibitory concentration (IC50) was below 0.3 µM on Syk; 0.3 to 3 µM against Src; below 0.3 µM on KDR; 0.3 to 3 µM at ZAP-70; 3 to 50 µM with Ramos cells.
`COc1cc(Nc2nc3c(-c4ccccc4-c4ccccc4)nccn3n2)cc(OC)c1` [Example C284, (8-Biphenyl-2-yl-[1,2,4]triazolo[1,5-a]pyrazin-2-yl)-(3,5-dimethoxy-phenyl)-amine]: the half-maximal inhibitory concentration (IC50) at Syk was below 0.3 µM; in the experiment on Ramos cells, 3 to 50 µM.
As for `Cc1cccc(Nc2nc3c(-c4ccc(N5CCOCC5)cc4)nccn3n2)c1` [Example E4], the IC50 at GCN2 is below 10 µM.
As for `c1cc(-c2nccn3nc(Nc4ccc(N5CCOCC5)cc4)nc23)c2cc[nH]c2c1` [Example D10, [8-(1H-Indol-4-yl)-[1,2,4]triazolo[1,5-a]pyrazin-2-yl]-(4-morpholin-4-yl-phenyl)-amine], the 50% inhibitory concentration (IC50) at Syk was below 0.3 µM; against Src it was below 0.3 µM; on KDR, below 0.3 µM; against ZAP-70, 3 to 50 µM; in the experiment on Ramos cells, 3 to 50 µM.
For `CN1CCN(c2ccc(Nc3nc4c(-c5cnn(C)c5)nccn4n3)cc2)CC1` [Example D18, [4-(4-Methyl-piperazin-1-yl)-phenyl]-[8-(1-methyl-1H-pyrazol-4-yl)-[1,2,4]triazolo[1,5-a]pyrazin-2-yl]-amine], the IC50 on Syk is below 0.3 µM; on Src, 0.3 to 3 µM; on KDR, 0.3 to 3 µM; at ZAP-70, 3 to 50 µM; with Ramos cells it was 3 to 50 µM.
`FC(F)(F)c1cccc(Nc2nc3c(-c4ccc(N5CCOCC5)cc4)nccn3n2)c1` [Example E3] yielded an IC50 against GCN2 below 10 µM.
In turn, `c1ccc(Cn2ncc3ccc(Nc4nc5c(-c6nccs6)nccn5n4)cc32)cc1` [Example E9] showed an IC50 against GCN2 below 10 µM.
As to `c1ccc2ncc(-c3nccn4nc(Nc5ccc(N6CCOCC6)cc5)nc34)cc2c1` [Example C261], the IC50 on Syk is below 0.3 µM; against Src it was 0.3 to 3 µM; against KDR, below 0.3 µM; at ZAP-70, 3 to 50 µM; with Ramos cells it was 3 to 50 µM.
